Experimental data taken from US20240368241A1, “SYNDECAN PEPTIDES” (Queen Mary University of London, priority 2021, published 2024).
Entries after “also recorded” stand apart in the source; their conditions may differ.

How the values were obtained:
[1] = tested on: rat aortic rings; test: Ex-vivo angiogenic sprouting assay, rat aortic rings; type: cell-based; conditions: peptides 0.5 μM alone or in combination, n=30-31 rings/condition
Experimental: FIG. 1. […] Schematic diagram showing the GST fusion protein consisting of GST fused at the N-terminus of the complete coding sequence of the murine Syndecan-3 extracellular core protein. This protein was expressed and purified from bacteria and was tested in the rat aortic ring angiogenic sprouting assay. Aortas were dissected from rats before being sliced into 1 mm wide rings. They are then embedded in collagen I with 0.5 μM of either GST or S3ED purified fusion proteins. 10 ng/ml of VEGF-A was then added into feeding media to encourage angiogenesis. After 7 days, angiogenic sprouts were counted. Images were captured on day 7 using a Hamamatsu Orca ER digital camera and processed using Cell M software. Data is from at least 10 rings per condition from 8 […]. (A) Phase contrast micrographs of aortic rings after 7 days. (B) Graph showing the number of sprouts formed after 7 days (*** p≤0.005).
FIG. 4. […] Comparison of the antiangiogenic sequences in the murine and human forms of syndecan-3 (A). Amino acids which are different are highlighted in yellow. Rat aortic rings where treated with 0.5 μM of either QM107, QM111, QM111M or in combination. […]
Thoracic aortas were dissected from either male wistar rats (˜200 g) or 4-5 week old male C57BL6J mice (both obtained from Charles River, UK). […] Angiogenic sprouts from explants were counted after 7 days and expressed as sprouts/ring or explant.

[2] = tested on: HUVECs; test: Scratch wound cell migration assay; type: cell-based, human; conditions: synthetic peptides alone or in combination
Experimental: FIG. 2. Miniaturization strategy to identify minimum peptide sequence for inhibition of angiogenesis. Schematic diagram showing the series of deletion mutants generated to ascertain the anti-angiogenic peptide sequence contained in syndecan-3 (A). Purified GST fusion proteins were used at a concentration of 0.5 μM in scratch wound migration assays using confluent monolayers of HUEVCs. Wound closure was measured after 7 hours. In this way we identified that the antiangiogenic properties of Syndecan-3 reside between P195 and A221 of the protein.
FIG. 3. […] Comparison of the antiangiogenic sequences in the murine and human forms of syndecan-3 (A). Amino acids which are different are highlighted in yellow. Scratch wound cell migration assays comparing the anti-migratory effects of QM107, QM111 and QM111M on HUVECS (B). […]
Confluent monolayers of HUVECs were scratched with a pipette tip, cells were then washed twice with PBS prior to the addition of growth medium supplemented with either GST fusion proteins or peptide treatments. Wounds were monitored by time lapse microscopy using an Olympus IX81 Microscope Hamamatsu Orca ER digital camera. Regions of interests in the scratch area were recorded using Cell^M software (Olympus) and micrographs of ROIs taken every 30 min for 16 hours with an Olympus IX81 inverted microscope. The initial and final gap was measured using ImageJ software (NIH).

[3] = tested on: pathological retinal neovascularisation (preretinal tufts); test: Oxygen-induced retinopathy (OIR) mouse model; type: in vivo; conditions: mouse pups, 0.5 μM QM111 injected into eye on return to normoxia vs PBS eye, analysed at P17
Experimental: FIG. 5. […] Data from an oxygen-induced model of retinopathy study. In this study. OIR was generated by exposing mice pups to 75% oxygen for 5 days from P7-P12. On P13, mice are injected with PBS (left eye) and 0.5 μM QM111 (right eye). They were then placed into 20% oxygen from P13-P17 where they underwent hypoxia. which led to neovascularisation taking place. OIR samples were collected at P17 and retinal structures were stained with isolectin GS-IB4. Neovascularisation was quantified by measuring the total areas where preretinal tufts were present. […] Data is from 8 mice.
Neonatal mice (both male and female) at P7 were exposed to 75% oxygen for 5 days with their nursing mothers. At P12, they were returned to normoxia. Animals were euthanized at P12 to determine the area of vaso-obliteration or at P17 to determine the rate of retinal revascularization and pre-retinal neovascularization. […] Sub retinal injections of the treatments described and controls was administered at day P12 upon return to normoxic conditions. Analysis of retinal vasculature was done as previously described. […] Pre-retinal neovascular tufts were readily distinguished from the superficial vascular plexus by focusing just above the inner limiting membrane. Areas of vascular obliteration and pathological neovascularization (neovascular tufts) were quantified using Adobe Photoshop CS3. […]

[4] = tested on: murine choroid explants; test: Ex-vivo angiogenic sprouting assay, murine choroid explants; type: cell-based, mouse; conditions: 0.5 μM peptide, 30 ng/ml VEGF, Collagen I matrix
Experimental: FIG. 7: QM111T inhibits choroidal neovascularization. Murine choroid explants were embedded in a Collagen I matrix and supplemented with 30 ng/ml VEGF and either 0.5 μM of QM111, QM111T, QM107 or a combination.
Thoracic aortas were dissected from either male wistar rats (˜200 g) or 4-5 week old male C57BL6J mice (both obtained from Charles River, UK). The fat surrounding the aortas was removed as were any branches and the tissue sliced into <1 mm rings. Choroid membranes explants were isolated from 21 to 28 day old male C57BL6J mice. Eyes were punctured with scissors and the iris/cornea/lens and retina removed. The resultant Choroid was then cut into 1 mm3 chunks. After dissection both aortic rings and choroid explants were incubated overnight at 37° C. in Opti-MEM (Thermo Fisher Scientific) prior to embedding on ice in 0.15 ml of 1 mg/ml Collagen I (Millipore) in E4 medium (Thermo Fisher Scientific) in 48 well plates (Corning). After 30 mins incubation at 37° C., to set the Collagen, wells were supplemented with 200 ul Opti-MEM with 1% FBS. For rat aortic rings 10 ng/ml of […] (R and D Systems) was added, for mouse aortic and choroid explants 30 ng/ml was used. Treatments at the concentrations indicated were also added to this and media replenished every 3 days. Angiogenic sprouts from explants were counted after 7 days and expressed as sprouts/ring or explant.

Substance	angiogenic sprout formation from rat aortic rings [1]	endothelial cell (HUVEC) migration in scratch wound assay [2]	pathological neovascularisation (area of preretinal tufts) in oxygen-induced retinopathy [3]	angiogenic sprouting from murine choroid explants [4]
PPFTATT AVIRTTGVRR LLPLPLTTVA (PPFTATTAVIRTTGVRRLLPLPLTTVA; listed as Homo sapiens) [QM111, human syndecan-3 peptide corresponding to the anti-angiogenic region]	inhibited to a similar degree	inhibited endothelial cell migration to the same degree	reduced pathological angiogenesis; also recorded: blocks pathological neovascularization	–
QM111M: mouse peptide, 27 amino acids of the anti-angiogenic region (P195-A221) of murine syndecan-3 (PPATATVADVRTTGIQGMLPLPLTTAA; UniProt Q64519 195-221, looked up, fragment)	inhibited to a similar degree	inhibited endothelial cell migration to the same degree	–	–
LPLPLTTVA (listed as Homo sapiens) [QM111T]	–	–	–	inhibited angiogenesis to the same degree as QM111 and QM107
